This data set has as its target T1, cytochrome P450 1A2 (CYP1A2) (Homo sapiens, UniProt P05177).
T1 sequence (P05177 2-516): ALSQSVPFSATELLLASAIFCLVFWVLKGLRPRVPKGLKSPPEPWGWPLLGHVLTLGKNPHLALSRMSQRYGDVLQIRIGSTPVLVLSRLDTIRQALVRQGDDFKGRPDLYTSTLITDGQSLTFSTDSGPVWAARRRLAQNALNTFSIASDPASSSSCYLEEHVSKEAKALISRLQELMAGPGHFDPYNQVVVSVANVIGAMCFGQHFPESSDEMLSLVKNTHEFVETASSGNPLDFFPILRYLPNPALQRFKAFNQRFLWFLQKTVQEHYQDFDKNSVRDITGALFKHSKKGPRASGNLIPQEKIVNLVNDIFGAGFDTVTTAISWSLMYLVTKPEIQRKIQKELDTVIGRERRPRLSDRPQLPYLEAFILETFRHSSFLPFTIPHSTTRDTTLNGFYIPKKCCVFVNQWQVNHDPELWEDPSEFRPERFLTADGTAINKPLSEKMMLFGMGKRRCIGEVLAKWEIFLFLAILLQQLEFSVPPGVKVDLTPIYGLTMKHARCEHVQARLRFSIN
Put plainly: […]-caffeine 3-N-demethylation in 50-donor pooled human liver microsomes. The format is biochemical. (In general: Liver microsomes are a subcellular fraction often used to study metabolism.)

Take `COc1c2ccoc2cc2oc(=O)ccc12` [5-MOP, 5-methoxypsoralen]: the IC50 (usually the midpoint of a concentration-inhibition curve) is 68.8 nM.

Consider `COc1c2ccoc2c(OC)c2oc(=O)ccc12` [ISOP, isopimpinellin], for which the IC50 was determined as 277 nM.

These data come from article PMC8329502 (Toxicology Reports, 2021).
